Holding throughout (format): cell-based
Experiment [1] deals with HEK293. The experiment in a line: IC50 determination / cytotoxicity in human cell lines (HEK293). To be noted: HEK293 (Kidney), 96 h; for IC50: 10.000 cells per well, 96 well plates, read-out: IC50 [μM] relative to untreated cells. The procedure:
(§1) Anticancer activity of the dinucleotides, (formulated and administered in PBS solutions), was evaluated in vitro in various cancer cell lines, according to a commonly used procedures for assessment of compounds cytotoxicity, as out lined in the following publications: Mender, I., Gryaznov, S., Dikmen, Z. G., Wright, W. E., & Shay, J. W. (2015). Induction of telomere dysfunction mediated by the telomerase substrate precursor 6-thio-2′-deoxyguanosine. Cancer Discovery, 5, 82-95; Mender et al., (2020). Telomere Stress Potentiates STING-Dependent Anti-tumor Immunity. Cancer Cell, 38, 400-411.

The subject of experiment [2] is HepG2. Description: IC50 determination / cytotoxicity in human cell lines (HepG2). To be noted: HepG2 (liver; hepatoblastoma), 96 h; for % max. toxicity @ 50 μM3: 50 μM; for IC50: 10.000 cells per well, read-out: IC50 [μM] relative to untreated cells. As for the experimental part:
as §1

Experiment [3] concerns Panc-1. Description: IC50 determination / cytotoxicity in human cell lines (Panc-1). To be noted: 96 h; for % max. toxicity @ 50 μM5: 50 μM; for IC50: 10.000 cells per well, read-out: IC50 [μM] relative to untreated cells. The procedure:
as §1

The test system of experiment [4] is Hep3B. Description: IC50 determination / cytotoxicity in human cell lines (Hep3B). To be noted: Hep3B (liver; childhood HCC), 96 h; for % max. toxicity @ 50 μM2: 50 μM; for IC50: 10.000 cells per well, read-out: IC50 [μM] relative to untreated cells. As for the experimental part:
as §1

Experiment [5] has as its system NCI-H23. Description: IC50 determination / cytotoxicity in human cell lines (NCI-H23). Conditions: NCI-H23 (lung; adenocarcinoma), 96 h; for % max. toxicity @ 50 μM4: 50 μM; for IC50: 10.000 cells per well, read-out: IC50 [μM] relative to untreated cells. As for the experimental part:
as §1

Regarding `Nc1nc2c(ncn2[C@H]2C[C@@H](O)[C@@H](COP(=O)(O)O[C@@H]3C[C@H](n4cnc5c(=S)[nH]c(N)nc54)O[C@@H]3CO)O2)c(=S)[nH]1` [Compound 1], in experiment [1], the “% max. toxicity @ 50 μM” value was found to be 94% and the IC50 turned out to be 0.28 µM. In addition, in experiment [2], the “% max. toxicity @ 50 μM3” value is 94% and the IC50 was 0.15 µM. In experiment [3], the “% max. toxicity @ 50 μM5” value is 95% and the IC50 was 0.18 µM. In experiment [4], the “% max. toxicity @ 50 μM2” value is reported as 92% and the IC50 was found to be 0.68 µM. Further, in experiment [5], the “% max. toxicity @ 50 μM4” value is given as 93% and the IC50 is 0.07 µM.

In the case of `Nc1nc2c(ncn2[C@H]2C[C@@H](OP(=O)(O)OC[C@H]3O[C@@H](n4cc(F)c(=O)[nH]c4=O)C[C@H]3O)[C@@H](CO)O2)c(=S)[nH]1` [Compound 5], in experiment [1], the “% max. toxicity @ 50 μM” value was 94% and the IC50 is 0.02 µM. In experiment [2], the “% max. toxicity @ 50 μM3” value is reported as 92% and the IC50 was 0.04 µM. In experiment [3], the “% max. toxicity @ 50 μM5” value is listed as 96% and the IC50 is 0.25 µM. For the same compound, in experiment [4], the “% max. toxicity @ 50 μM2” value was 87% and the IC50 turned out to be 0.09 µM. In addition, in experiment [5], the “% max. toxicity @ 50 μM4” value was determined as 94% and the IC50 was 0.01 µM.

As for `Nc1nc2c(ncn2[C@H]2C[C@@H](O)[C@@H](COP(=O)(O)O[C@@H]3C[C@H](n4cc(F)c(=O)[nH]c4=O)O[C@@H]3CO)O2)c(=S)[nH]1` [Compound 6], in experiment [1], the “% max. toxicity @ 50 μM” value is recorded as 93% and the IC50 is 0.01 µM. In addition, in experiment [2], the “% max. toxicity @ 50 μM3” value is 89% and the IC50 was 0.06 µM. In experiment [3], the “% max. toxicity @ 50 μM5” value is reported as 88% and the IC50 was found to be 0.25 µM. Also, in experiment [4], the “% max. toxicity @ 50 μM2” value is listed as 82% and the IC50 is 0.06 µM. In experiment [5], the “% max. toxicity @ 50 μM4” value turned out to be 92% and the IC50 came out at 0.02 µM.

As to `Nc1nc2c(ncn2[C@H]2C[C@@H](OP(O)(=S)OC[C@H]3O[C@@H](n4cc(F)c(=O)[nH]c4=O)C[C@H]3O)[C@@H](CO)O2)c(=S)[nH]1` (some centres unmarked) [Compound 11], in experiment [1], the “% max. toxicity @ 50 μM” value is listed as 86% and the IC50 worked out at 0.63 µM. Besides, in experiment [2], the “% max. toxicity @ 50 μM3” value was determined as 71% and the IC50 was determined as 0.61 µM. In experiment [3], the “% max. toxicity @ 50 μM5” value amounted to 80% and the IC50 was 5.12 µM. Besides, in experiment [4], the “% max. toxicity @ 50 μM2” value is 62% and the IC50 was found to be 1.12 µM. In addition, in experiment [5], the “% max. toxicity @ 50 μM4” value was 79% and the IC50 came to 1.11 µM.

For the compound `Nc1nc2c(ncn2[C@H]2C[C@@H](O)[C@@H](COP(O)(=S)O[C@@H]3C[C@H](n4cc(F)c(=O)[nH]c4=O)O[C@@H]3CO)O2)c(=S)[nH]1` (some centres unmarked) [Compound-12], in experiment [1], the “% max. toxicity @ 50 μM” value is 86% and the IC50 was 0.61 µM. Also, in experiment [2], the “% max. toxicity @ 50 μM3” value is given as 49% and the IC50 was found to be 1.15 µM. Further, in experiment [3], the “% max. toxicity @ 50 μM5” value was 48% and the IC50 is above 50 µM. Besides, in experiment [4], the “% max. toxicity @ 50 μM2” value was 59% and the IC50 is 3.68 µM. Moreover, in experiment [5], the “% max. toxicity @ 50 μM4” value is recorded as 81% and the IC50 was determined as 2.55 µM.

The values are drawn from US20240115594A1, “DINUCLEOTIDES AND THEIR USE IN TREATING CANCER” (MAIA Biotechnology, Inc., priority 2022, published 2024).
